From patent US10633367B2, “Fluorine- and/or deuterium-containing compounds for treating non-small cell lung cancer and related diseases” (X-Cutag Therapeutics, Inc., priority 2017, dated 2020)

Assays:
[1] = system: NCI-H1975 NSCLC cells carrying activating EGFR T790M mutation; experiment: Cell viability of NCI-H1975 cells (CCK-8 assay); format: cell-based, human; details: 36 hour treatment, CCK-8, FIG. 13
Protocol: NCI-H1975 is a model human NSCLC cell line that expresses activating EGER-T790M mutant, resulting in uncontrolled cell proliferation. Efficient inhibition of EGFR tyrosine kinase activity by TKI can affect cell growth, causing cell death. Here the inventors studied the effect of F1-osimertinib on cell viability of NCI-H1975 cells by […] (Cell Counting Kit-8 (CCK-8), Bimake.com, Houston, Tex.). 4,000 exponentially growing cells in 100 ul culture media were seeded in triplicate into 96-well plates and cultured to 70-80% continency. Cells were treated with indicated concentration of F1-osimertinib for 36 hour. 10 ul/well CCK-8 were added and continuously incubated till the absorbance (OD) at 450 nm reaches 0.8 measured by a microplate reader. Medium only wells were served as blank control. The cell viability was calculated as follows: Cell viability (%)=[A(F1-osimertinib)−A(blank)]/[A(solvent)−A(blank)]×100%. A: OD value measured.

[2] = Co-incubation in dog plasma (ex-vivo stability, LC-MS/MS); format: in vitro ADME; details: beagle plasma, after incubating for two hours, co-incubated, FIG. 11
Protocol: (§1) Briefly, 40 μL of osimertinib was co-incubated with an equal volume of one of the compounds described in this invention at the same concentration in blank plasma (human, beagle dog, Sprague-Dawley rat or CD-1 mouse). The tubes were incubated in a dry bath incubator for six time points ranging from 0 to 120 minutes. At each time point, the plasma was crashed with 200 μL internal standard working solution in acetonitrile, then vortexes and centrifuged. A portion of the supernatant was then transferred to autosampler vials for injection into the LC-MS/MS system. Chromatographic retention of osimertinib and the compounds described in the invention was obtained on an ACE 3 C18, 2.1×50 min, 3.0 μm column (Aberdeen, Scotland) under gradient conditions with a flow rate of 0.3 mL/minute. Analytes were detected by multiple reaction monitoring using an MDS Sciex API 4000 mass spectrometer (Applied Biosystems/MDS Sciex, Concord, Ontario, Canada) in positive mode. Data was captured using Analyst®, Version 1.6.2 (Applied Biosystems/MDS Sciex, Foster City, Calif.) and then exported to Excel® (Microsoft, Seattle, Wash.) for further data reduction.

[3] = Co-incubation in human plasma (ex-vivo stability, LC-MS/MS); format: in vitro ADME; details: co-dosed with osimertinib at 1:1 ratio, 0 to 120 minutes, FIG. 9
Protocol: as §1

[4] = Co-incubation in rat plasma (ex-vivo stability, LC-MS/MS); format: in vitro ADME, Sprague-Dawley rat; details: after incubating for two hours, co-incubated, FIG. 10
Protocol: as §1

[5] = Co-incubation in mouse plasma (ex-vivo stability, LC-MS/MS); format: in vitro ADME, CD-1 mouse; details: after incubating for two hours, co-incubated, FIG. 12
Protocol: as §1

SMILES	inhibition of NSCLC cell growth (cell viability) [1]	remaining percentage of the initial concentration [2]	stability when incubated in human plasma [3]	remaining percentage of the initial concentration [4]	remaining percentage [5] [%]
[2H]C([2H])([2H])n1cc(-c2ccnc(Nc3cc(NC(=O)C(=C)F)c(N(C)CCN(C)C)cc3OC)n2)c2ccccc21 [F1-D3-osimertinib]	significant inhibition of NSCLC cell growth	–	–	–	–
C=C(F)C(=O)Nc1cc(Nc2nccc(-c3cn(C)c4ccccc34)n2)c(OC)cc1N(C)CCN(C)C [F1-osimertinib]	significant inhibition of NSCLC cell growth	–	–	–	–
C=CC(=O)Nc1cc(Nc2nccc(-c3cn(C)c4ccccc34)n2)c(OC)cc1N(C)CCN(C)C [osimertinib, N-(2-{2-dimethylaminoethyl-methylamino}-4-methoxy-5-{[4-(1-methylindol-3-yl)pyrimidin-2-yl]amino}phenyl)prop-2-enamide]	–	approximately 78%	decreased rapidly	around 35%	92
